Earlier results, collected in US20080279776A1, “Photosensitizers and MRI Enhancers” (Photo Diagnostic Devices (PDD) Limited, priority 2005, published 2008).

Conditions: readings taken as a prototype

Substance: 18-carboxy-20-(carboxymethyl)-8-ethenyl-13-ethyl-2,3-dihydro-3,7,12,17-tetramethyl-21H,23H-porphine-2-propanoic acid [Chlorine-e6]
- LD10: 119 mg/kg weight
- LD50: 160 mg/kg weight
